In patent US8513232B2, “Substituted spirocyclic piperidine derivatives as histamine-3 (H3) receptor ligands” (Cephalon, Inc., priority 2008, dated 2013):
Values joined by “and” are separate entries in the source; they are usually repeats but may differ in a detail not shown here. Equal entries are not always repeated. Where two headings read alike, the source gives them in different places.

Experiments:
human H3 receptor = target: T1, human H3 receptor (Homo sapiens, UniProt Q9Y5N1); experiment: Human H3 radioligand binding ([3H]-N-alpha-methylhistamine, SPA)
T1 construct: expressed in transfected cells
Procedure, shortened: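 SPA competition binding on membranes from CHO cells stably expressing human H3 receptor (10 μg protein/well) with ~1 nM [3H]-N-alpha-methylhistamine and compound at 0.01 nM-30 μM. Incubation 4 h at room temperature in 50 mM Tris-HCl pH 7.4, 5 mM MgCl2, 0.1% BSA; non-specific binding defined with 10 μM clobenpropit.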

[1] = target: T2, rat histamine H3 receptor (Rattus norvegicus, UniProt Q9QYN8); experiment: Rat H3 radioligand binding ([3H]-N-alpha-methylhistamine, SPA)
T2 construct: encoding the entire 445-amino-acid rat histamine H3 receptor; expressed in transfected cells; membrane preparation
Procedure, shortened: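 Membranes from CHO-A3 cells stably expressing full-length rat H3 receptor (10 μg protein/well) incubated 4 h at room temperature, protected from light, with ~1 nM [3H]-N-alpha-methylhistamine and compound (0.01 nM-30 μM) in 50 mM Tris HCl pH 7.4, 5 mM MgCl2, 0.1% BSA. Binding read by SPA; 10 μM clobenpropit defined non-specific binding.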

[2] = human H3 binding, Table D, read-out: Human H3 Ki
[3] = rat H3 binding, Table D, read-out: Rat H3 Ki
[4] = Human H3 binding, Table B, Examples 136-362, read-out: hum H3 binding Ki
[5] = Rat H3 binding, Table B, Examples 136-362, read-out: rat H3 binding Ki
[6] = Table C, human H3 binding, read-out: Human H3 Ki
[7] = Table C, rat H3 binding, read-out: Rat H3 Ki

T2 sequence (Q9QYN8 whole entry): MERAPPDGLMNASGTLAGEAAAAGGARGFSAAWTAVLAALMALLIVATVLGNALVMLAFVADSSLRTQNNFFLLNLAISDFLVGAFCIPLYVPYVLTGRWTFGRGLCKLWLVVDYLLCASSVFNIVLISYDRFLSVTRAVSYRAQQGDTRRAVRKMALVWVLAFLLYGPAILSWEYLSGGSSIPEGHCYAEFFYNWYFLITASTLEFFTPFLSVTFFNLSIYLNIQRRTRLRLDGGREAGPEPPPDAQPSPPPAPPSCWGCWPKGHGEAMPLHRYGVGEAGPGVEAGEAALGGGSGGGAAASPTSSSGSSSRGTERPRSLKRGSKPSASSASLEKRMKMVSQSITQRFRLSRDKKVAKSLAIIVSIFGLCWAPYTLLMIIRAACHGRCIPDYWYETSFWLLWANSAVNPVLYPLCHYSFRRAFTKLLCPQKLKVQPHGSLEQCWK
T1 sequence (Q9Y5N1 whole entry): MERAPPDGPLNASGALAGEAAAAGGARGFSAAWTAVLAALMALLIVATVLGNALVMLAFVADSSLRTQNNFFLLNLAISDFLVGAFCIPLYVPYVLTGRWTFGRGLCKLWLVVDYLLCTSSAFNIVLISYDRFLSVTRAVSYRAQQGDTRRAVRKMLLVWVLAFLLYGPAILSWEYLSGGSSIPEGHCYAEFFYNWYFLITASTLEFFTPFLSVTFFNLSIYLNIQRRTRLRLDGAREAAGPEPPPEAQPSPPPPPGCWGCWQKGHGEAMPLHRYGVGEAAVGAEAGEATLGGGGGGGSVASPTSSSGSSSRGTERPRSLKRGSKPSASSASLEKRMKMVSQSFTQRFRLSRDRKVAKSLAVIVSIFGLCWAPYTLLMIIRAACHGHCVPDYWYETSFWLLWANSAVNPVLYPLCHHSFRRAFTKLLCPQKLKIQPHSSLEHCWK

| melting point | Ki (human H3 receptor; [4]) | Ki [1, 5] | SMILES | also measured |
| --- | --- | --- | --- | --- |
| 61 to 63 °C |  |  | COc1ncc(-c2ccc3c(c2)COC2(CCN(C4CCC4)CC2)O3)cc1O [Example 788] | Ki (human H3 receptor; [2]): < 200 nM; Ki [1, 3]: < 200 nM |
| 57 to 61 °C | < 200 nM | < 200 nM | c1cnc(Nc2ccc3c(c2)COC2(CCN(C4CCC4)CC2)O3)cn1 [Example 136] |  |
| 66.8 to 68.4 °C | < 200 nM | < 200 nM | COCCNC(=O)N1CCN(c2ccc3c(c2)COC2(CCN(C4CCC4)CC2)O3)CC1 [Example 275] |  |
| 115 to 117 °C | < 200 nM | < 200 nM | CC(=O)N(Cc1ccccc1)c1ccc2c(c1)COC1(CCN(C3CCC3)CC1)O2 [Example 290] |  |
| 170 to 172 °C | < 200 nM | < 200 nM | N#Cc1ccc(NC(=O)Nc2ccc3c(c2)COC2(CCN(C4CCC4)CC2)O3)cc1 [Example 157] |  |
| 128 to 132 °C |  |  | OC1CC=C(c2ccc3c(c2)COC2(CCN(C4CCC4)CC2)O3)CC1 (stereo not drawn) [Example 525] | Ki (human H3 receptor; read-out: Human H3 Ki): < 200 nM; Ki ([1]; read-out: Rat H3 kI): < 200 nM |
| 140 to 141 °C |  |  | CCN(C)C(=O)c1ccc(-c2ccc3c(c2)COC2(CCN(C4CCC4)CC2)O3)cc1 [Example 30] | Ki (human H3 receptor; Table A, human H3 binding, read-out: Human Ki): < 200 nM; Ki ([1]; Table A, rat H3 binding, read-out: Rat Ki): < 200 nM |
| 212 to 215 °C | < 200 nM | < 200 nM | N#Cc1cccc(C(=O)Nc2ccc3c(c2)COC2(CCN(C4CCC4)CC2)O3)c1 [Example 153] |  |
| 167 to 169 °C | < 200 nM | < 200 nM | O=C(Cc1cccnc1)Nc1ccc2c(c1)COC1(CCN(C3CCC3)CC1)O2 [Example 333] |  |
| 150 to 151 °C |  |  | COc1ncc(-c2ccc3c(c2)COC2(CCN(C4CCC4)CC2)O3)cc1CO [Example 768] | Ki (human H3 receptor; [2]): < 200 nM; Ki [1, 3]: < 200 nM |
| 233 to 235 °C | < 200 nM | < 200 nM | c1cc(COc2ccc3c(c2)CCC2(CCN(C4CCC4)CC2)O3)ccn1 [Example 269] |  |
| 175 to 177 °C |  |  | COc1ncc(-c2ccc3c(c2)COC2(CCN(C4CCC4)CC2)O3)cc1F [Example 714] | Ki (human H3 receptor; [2]): < 200 nM; Ki [1, 3]: < 200 nM |
| 154.6 to 156.4 °C | < 200 nM | < 200 nM | O=S(=O)(N1CCN(c2ccc3c(c2)COC2(CCN(C4CCC4)CC2)O3)CC1)C(F)(F)F [Example 299] |  |
| 47 to 49 °C | < 200 nM | < 200 nM | Cc1nn(C)c(C)c1-c1ccc2c(c1)CCC1(CCN(C3CCC3)CC1)O2 [Example 171] |  |
| 232 to 234 °C | < 200 nM | < 200 nM | c1ccc(Oc2ccc3c(c2)CCC2(CCN(C4CCC4)CC2)O3)nc1 [Example 241] |  |
| 110 to 112 °C | < 200 nM | < 200 nM | CNC(=O)c1c(F)cc(-c2ccc3c(c2)CCC2(CCN(C4CCC4)CC2)O3)cc1F [Example 226] |  |
| 57 to 59 °C | < 200 nM | < 200 nM | CC(=O)N(Cc1cccnc1)c1ccc2c(c1)COC1(CCN(C3CCC3)CC1)O2 [Example 320] |  |
| 234 to 236 °C | < 200 nM | < 200 nM | O=C(Nc1ccc2c(c1)COC1(CCN(C3CCC3)CC1)O2)c1ccnc(N2CCCC2)c1 [Example 309] |  |
| 234 to 235 °C | < 200 nM | < 200 nM | Clc1ccc(Nc2ccc3c(c2)COC2(CCN(C4CCC4)CC2)O3)cc1 [Example 259] |  |
| 180 to 182 °C |  |  | CN(C)C(=O)CCc1ccc2c(c1)CCC1(CCN(C3CCC3)CC1)O2 [Example 603] | Ki (human H3 receptor; [2]): < 200 nM; Ki [1, 3]: < 200 nM |
| 127 to 128 °C |  |  | COc1cc(C)c(-c2ccc3c(c2)CCC2(CCN(C4CCC4)CC2)O3)cn1 [Example 769] | Ki (human H3 receptor; [2]): < 200 nM; Ki [1, 3]: < 200 nM |
| 148 to 149 °C |  |  | CS(=O)(=O)c1cncc(-c2ccc3c(c2)COC2(CCN(C4CCC4)CC2)O3)c1 [Example 655] | Ki (human H3 receptor; [2]): < 200 nM; Ki [1, 3]: < 200 nM |
| 115 to 117 °C |  |  | c1ccc(COc2ccc(-c3ccc4c(c3)CCC3(CCN(C5CCC5)CC3)O4)cn2)cc1 [Example 533] | Ki (human H3 receptor; read-out: Human H3 Ki): < 200 nM; Ki ([1]; read-out: Rat H3 kI): < 200 nM |
| 85 to 87 °C | < 200 nM | < 200 nM | O=C(c1ccc(-c2ccc3c(c2)COC2(CCN(C4CCC4)CC2)O3)cc1)N1CCC[C@@H](O)C1 [Example 201] |  |
| 173 to 175 °C |  |  | c1ccc(N2CCN(c3ccc4c(c3)CCC3(CCN(C5CCC5)CC3)O4)CC2)cc1 [Example 363] | Ki (human H3 receptor; [6]): < 200 nM; Ki [1, 7]: < 200 nM |

| melting point | Ki (human H3 receptor; [4]) | Ki [1, 5] | SMILES | also measured |
| --- | --- | --- | --- | --- |
| 246 to 248 °C |  |  | CNC(=O)C1CC(O)(c2ccc3c(c2)COC2(CCN(C4CCC4)CC2)O3)C1 (stereo not drawn) [Example 494] | Ki (human H3 receptor; read-out: Human H3 Ki): < 200 nM; Ki ([1]; read-out: Rat H3 kI): < 200 nM |
| 78 to 80 °C |  |  | COc1ccc(C(O)c2ccc3c(c2)COC2(CCN(C4CCC4)CC2)O3)cn1 (stereo not drawn) [Example 504] | Ki (human H3 receptor; read-out: Human H3 Ki): < 200 nM; Ki ([1]; read-out: Rat H3 kI): < 200 nM |
| 181 to 183 °C | < 200 nM | < 200 nM | c1csc(-c2ccc3c(c2)COC2(CCN(C4CCC4)CC2)O3)n1 [Example 143] |  |
| 174 to 176.2 °C | < 200 nM | < 200 nM | CNC(=O)c1ccc(-c2ccc3c(c2)COC2(CCN(C4CCC4)CC2)O3)cc1C [Example 205] |  |
| 185 to 189 °C | < 200 nM | < 200 nM | O=C1N(c2ccncc2)CCN1c1ccc2c(c1)COC1(CCN(C3CCC3)CC1)O2 [Example 178] |  |
| 198 to 199 °C | < 200 nM | < 200 nM | O=C(Nc1ccc2c(c1)COC1(CCN(C3CCC3)CC1)O2)c1ccncn1 [Example 297] |  |
| 178 to 180 °C |  |  | Cc1c(-c2ccc3c(c2)COC2(CCN(C4CCC4)CC2)O3)c[nH]c(=O)c1C [Example 799] | Ki (human H3 receptor; [2]): < 200 nM; Ki [1, 3]: < 200 nM |
| 208 to 210 °C | < 200 nM | < 200 nM | O=C1N(c2ccncc2)CCN1c1ccc2c(c1)CCC1(CCN(C3CCC3)CC1)O2 [Example 210] |  |
| 159 to 161 °C | < 200 nM | < 200 nM | CS(=O)(=O)N1CCC(COc2ccc3c(c2)CCC2(CCN(C4CCC4)CC2)O3)CC1 [Example 335] |  |
| 305 to 307 °C |  |  | O=C(C1CCCN(c2ccc3c(c2)CCC2(CCN(C4CCC4)CC2)O3)C1)N1CCCC1 (stereo not drawn) [Example 451] | Ki (human H3 receptor; read-out: Human H3 Ki): < 200 nM; Ki ([1]; read-out: Rat H3 kI): < 200 nM |
| 266 to 269 °C |  |  | CCOC1CCN(c2ccc3c(c2)COC2(CCN(C4CCC4)CC2)O3)CC1 [Example 431] | Ki (human H3 receptor; [6]): < 200 nM; Ki [1, 7]: < 200 nM |
| 238 to 240 °C | < 200 nM | 200 to 1000 nM | O=C(Nc1ccc2c(c1)COC1(CCN(C3CCC3)CC1)O2)N1CCOCC1 [Example 165] |  |
| 247 to 249 °C |  |  | Cc1cc(=O)[nH]c(C)c1-c1ccc2c(c1)COC1(CCN(C3CCC3)CC1)O2 [Example 806] | Ki (human H3 receptor; [2]): < 200 nM; Ki [1, 3]: < 200 nM |
| 78 to 80 °C | < 200 nM | < 200 nM | O=C(c1ccc(-c2ccc3c(c2)CCC2(CCN(C4CCC4)CC2)O3)cc1F)N1CC[C@H](O)C1 [Example 194] |  |
| 218 to 219 °C | < 200 nM | < 200 nM | COCCNC(=O)c1ccc(-c2ccc3c(c2)CCC2(CCN(C4CCC4)CC2)O3)cn1 [Example 209] |  |
| 210 to 211 °C |  |  | CNC(=O)c1ccc(-c2ccc3c(c2)COC2(CCN(C4CCC4)CC2)O3)c(C)c1 [Example 681] | Ki (human H3 receptor; [2]): < 200 nM; Ki [1, 3]: < 200 nM |
| 131 to 133 °C |  |  | COc1ccc(-c2ccc3c(c2)COC2(CCN(C4CCC4)CC2)O3)c(C)n1 [Example 726] | Ki (human H3 receptor; [2]): < 200 nM; Ki [1, 3]: < 200 nM |
| 234 to 236 °C |  |  | CN1CC(COc2ccc3c(c2)CCC2(CCN(C4CCC4)CC2)O3)CC1=O (stereo not drawn) [Example 519] | Ki (human H3 receptor; read-out: Human H3 Ki): < 200 nM; Ki ([1]; read-out: Rat H3 kI): < 200 nM |
| 174 to 176 °C |  |  | O=C(NC1CCOCC1)c1ccc(COc2ccc3c(c2)CCC2(CCN(C4CCC4)CC2)O3)cc1 [Example 647] | Ki (human H3 receptor; [2]): < 200 nM; Ki [1, 3]: < 200 nM |
| 243 to 245 °C | < 200 nM | < 200 nM | CN(C)C(=O)c1ccc(N2CCN(c3ccc4c(c3)COC3(CCN(C5CCC5)CC3)O4)C2=O)cc1 [Example 244] |  |
| 166 to 168 °C | < 200 nM | < 200 nM | O=C(NCCO)c1ccc(-c2ccc3c(c2)COC2(CCN(C4CCC4)CC2)O3)cc1F [Example 163] |  |
| 239 to 241 °C and 239 to 240 °C |  |  | O=S1(=O)CCC(Oc2ccc3c(c2)CCC2(CCN(C4CCC4)CC2)O3)CC1 [Example 467] | Ki (human H3 receptor; read-out: Human H3 Ki): < 200 nM; Ki ([1]; read-out: Rat H3 kI): < 200 nM |
| 210 to 211 °C |  |  | O=S1(=O)CCC(c2ccc3c(c2)COC2(CCN(C4CCC4)CC2)O3)CC1 [Example 489] | Ki (human H3 receptor; read-out: Human H3 Ki): < 200 nM; Ki ([1]; read-out: Rat H3 kI): < 200 nM |
| 92.3 to 94.2 °C |  |  | COCC1CCN(c2ccc3c(c2)COC2(CCN(C4CCC4)CC2)O3)CC1 [Example 632] | Ki (human H3 receptor; [2]): < 200 nM; Ki [1, 3]: < 200 nM |
